Measured values reported in BindingDB's records for doi:10.1016/j.bmcl.2004.12.084 (Novo Nordisk, 2005).

These compounds were tested against Peroxisome proliferator-activated receptor gamma (Homo sapiens) (UniProt P37231) (assay: Effective concentration for human peroxisome proliferator-activated receptor gamma).

Row | SMILES | EC50 [µM]
1 | CCO[C@@H](Cc1ccc(OCc2ccc(COc3ccc(C[C@H](OCC)C(=O)O)cc3)cc2)cc1)C(=O)O [(S)-3-(4-{4-[4-((S)-2-Carboxy-2-ethoxy-ethyl)-phenoxymethyl]-benzyloxy}-phenyl)-2-ethoxy-propionic acid] | 14
2 | CCO[C@@H](Cc1ccc(O/C=C\Oc2ccc(C[C@@H](OCC)C(=O)O)cc2)cc1)C(=O)O [(S)-3-(4-{(Z)-2-[4-((R)-2-Carboxy-2-ethoxy-ethyl)-phenoxy]-vinyloxy}-phenyl)-2-ethoxy-propionic acid] | 15
3 | CCO[C@@H](Cc1ccc(OC/C=C(/C)C#Cc2ccccc2)cc1)C(=O)O [(S)-2-Ethoxy-3-[4-((Z)-3-methyl-5-phenyl-pent-2-en-4-ynyloxy)-phenyl]-propionic acid] | 0.6
